Laboratory results reported in patent publication US10350204B2, “Methods for treating cognitive deficits associated with fragile X syndrome” (Wisconsin Alumni Research Foundation, priority 2015, dated 2019).

Columns and labels:
Fmr1 KO mice = assay: Novel object recognition (NOR) test; format: in vivo, mouse
Protocol: (§1) All animal procedures were performed according to protocols approved by the University of Wisconsin-Madison Care and Use Committee. All mice were on C57B/L6 genetic background. The Fmr1 KO/Nestin-GFP mice (Fmr1−/y::Nestin-GFP) were created by crossing female Fmr1 heterozygous KO mice (Fmr1+/−) (59) with homozygous Nestin-GFP transgenic males (60). Generation of FMRP inducible conditional mutant mice (Fmr1loxP/y::Nestin-CreERT2::Rosa26-tdt) and tamoxifen injections to induce recombination were performed as described (12). To induce recombination, mice (6-weeks old) received Tamoxifen (Sigma-Aldrich) daily for 5 d (160 mg/kg) as described (12). Nutlin-3 (10 mg/kg) was given to 7-8 week-old mice or 20-week old mice through IP injections every other day for 5 injections and sacrificed at either 24 hours, 4 weeks, 12, or 20 weeks after the last injection. For NSC differentiation analysis, mice also received four BrdU injections (100 mg/kg) between day 2 and 3 of Nutlin-3 injections. To induce recombination in FMRP inducible conditional mutant mice (Fmr1^loxP/y::Nestin-CreER^T2::Rosa26-tdt) mice, mice 6-weeks old male mice received Tamoxifen (Sigma-Aldrich) daily for 5 days (160 mg kg-1 i.p., 30 mg ml^−1 in 10% ethanol mixed with sunflower oil, SigmaAldrich) based on a published procedure (13). BrdU (Sigma-Aldrich, B5002) was made in a concentration of 20 mg/mL in PBS. Nutlin-3 (Nt3, Cayman Chemical, 10004372) was made in a concentration of 100 mg/mL in dimethyl sulfoxide (DMSO).
This test is based on the natural propensity of rodents to preferentially explore novel objects over familiar ones. The experimental procedure was performed as previously described (38). On the first day, mice were habituated for 10 min to the maze in which the task was performed. On the second day, mice were put back in the maze for 10 min, and two identical objects were presented. 24 hours later, one of the familiar objects was replaced with a novel object, and the mice were again placed in the maze and were allowed to explore for 10 min, and the total time spent exploring each of the two objects (novel and familiar) was measured. The discrimination index was calculated as the difference between the percentages of time spent investigating the novel object and the time spent investigating the familiar objects: discrimination index=(novel object exploration time/total exploration time×100)−(familiar object exploration time/total exploration time×100). All experiments were videotaped and scored by scientists who were blinded to experimental conditions.

[1] = tested on: Fmr1 KO and wildtype NPCs; assay: Western blot analyses of p-AKT, p-MDM2, MDM2 and P53 in NPCs; format: cell-based, mouse
Protocol: NPCs were isolated from the dentate gyms of 8 to 10-week-old male Fmr1 KO mice and wild-type (wildtype) littermate controls based on our published methods (12, 64). Independently isolated cells serve as biological replicates. Proliferation and differentiation of NPCs was analyzed as described (11, 12, 61). We used only early passage cells (between passage 4 and 10) and only the same passage numbers of wildtype and Fmr1 KO cells. For each experiment, triplicate wells of cells were analyzed, and results were averaged as one data point (n=1). At least 3 independent biological replicates were used (n=3) for statistical analyses.
Protein samples were separated on SDS-PAGE gels (Bio-Rad), transferred to PVDF membranes (Millipore), and incubated with primary antibodies. After incubation with fluorescence-labeled secondary antibodies (Li—CoR), the membranes were imaged using Li—CoR and quantification was performed using ImageJ software. At least n=3 independent blots were used for statistical analysis.
For loading controls, membranes were probed with the mouse antibody against GAPDH.

[2] = tested on: NSCs of Fmr1 KO and wildtype mice; assay: In vivo cell fate analysis of BrdU+ cells (NeuN, S100β); set-up: species or system mouse; details: 10 mg/kg, 5 injections, analyzed 4 weeks after last treatment
Protocol: as §1
Brain tissue processing and histological analysis of mouse brains were performed as described in our publications (11, 12, 61). Briefly mice were euthanized by IP injection of sodium pentobarbital and then transcardially perfused with saline followed by 4% PFA. Brains were dissected out, post-fixed overnight in 4% PFA, and equilibrated in 30% sucrose. 40 μm brain sections were generated using a sliding microtome and stored as floating sections in cryoprotectant solution (glycerol, ethylene glycol, and 0.1M phosphate buffer, pH 7.4, 1:1:2 by volume). We performed immunohistological analysis on 1-in-6 serial floating brain sections (240 μm apart). […]
Phenotypic analysis of tdT+ cells was performed as described 3,4. Briefly, at least 50 tdT+ cells in the DG were randomly selected, and their colocalization with cell-lineage markers (e.g., double labeling with GFAP) was determined using Nikon A1 confocal microscope and quantified using Image J software (NIH). […] Briefly, at least 50 BrdU+ cells in the DG were randomly selected, and the colocalization of BrdU with cell-lineage markers (NeuN or S100β) was determined using Nikon A1 confocal microscope and quantified using Image J software (NIH). […]

[3] = tested on: Fmr1 KO and wildtype NPCs; assay: Differentiation assay of cultured NPCs (Tuj1 neurons, GFAP astrocytes); format: cell-based, mouse; details: 4 days
Protocol: Proliferation and differentiation of aNPCs were analyzed using our published methods (Guo et al., Nature Med. (2011); Guo et al., Neuron 70, 924-938 (2011); Luo et al., PLoS Genet 6 (2010); Liu et al., Cell Stem Cell 6 (2010)). We used only early passage cells (between passage 4 and 10) and only the same passage numbers of wild type (WT) and Fmr1 KO cells. For each experiment, triplicate wells of cells were analyzed, and results were averaged as one data point (n=1). At least 3 independent experiments (n=3) were performed and used for statistical analyses for each analysis. […] For the differentiation assay, at 24 h post-plating, cells were changed into differentiation medium, Neurobasal A, containing 5 μM forskolin (Sigma-Aldrich, F-6886) and 1 μM retinoic acid (Sigma-Aldrich, R-2625) for 4 d, followed by fixation with 4% paraformaldehyde for 30 min, and then washed with Dulbecco's Phosphate Buffered Saline (DPBS), pH 7.4 for 30 min. Immunocytochemistry staining was carried out as described (Guo et al., Nature Med. (2011); Guo et al., Neuron 70, 924-938 (2011); Luo et al., PLoS Genet 6 (2010); Liu et al., Cell Stem Cell 6 (2010)). Briefly, cells were preblocked using DPBS containing 5% normal goat serum (VECTOR, S-1000) and 0.1% Triton X-100 for 30 min, followed by overnight incubation with primary antibodies: mouse anti-Tuj1 (1:1000, Promega, G712A) and rabbit anti-S100β (1:1000, Dako, Z0334).
After washing with Dulbecco s Phosphate Buffered Saline (DPBS), cells were incubated with secondary antibodies that included goat anti-mouse 568 (1:1000, Invitrogen, A11031), goat anti-rabbit 488 (1:1000, Invitrogen, A11008) followed by counterstaining with the fluorescent nuclear dye 4′,6-diamidino-2′-phenylindole dihydrochloride (DAPI, Sigma-Aldrich, B2261). […] (VECTOR, H-1000), the numbers of Tuj1, GFAP-positive cells were quantified using an Olympus BX51 microscope equipped with a MicroFire digital camera (Optronics) and a motorized stage using a 20× objective lens. The quantification was carried out using an unbiased stereology method with assistance from StereoInvestigator software (MBF Biosciences). The percentage of differentiated cells was calculated as the number of Tuj1- or GFAP-labeled cells divided by the total number of cells stained with DAPI.

[4] = tested on: Fmr1 KO and wildtype NPCs; assay: BrdU proliferation assay of cultured NPCs; format: cell-based, mouse
Protocol: We used only early passage cells (between passage 4 and 10) and only the same passage numbers of wild type (WT) and Fmr1 KO cells. For each experiment, triplicate wells of cells were analyzed, and results were averaged as one data point (n=1). At least 3 independent experiments (n=3) were performed and used for statistical analyses for each analysis. To study cell proliferation, we dissociated neural stem cells with trypsin and plated them on poly-L-ornithine and laminin-coated 24 well plate (Scientific fisher, 87721) at a density of 100,000 cells per well in proliferation medium. At 20 h post-plating, 5 μM 5-bromo-2.′-deoxyuridine (BrdU, Sigma-Aldrich) was added into the culture medium for 6 h. NPCs were then washed with PBS and fixed with 4% paraformaldehyde for 30 min at room temperature, followed by immunohistochemical analysis. To detect BrdU incorporation, fixed cells were pretreated with 1M HCl for 30 min at 37° C., and then washed with borate buffer, pH 8.5, for 30 min. We then followed our standard immunohistochemistry protocol^10. BrdU incorporation assay was determined using an Operetta high content imaging system (PerkinElmer, Inc) and Harmony quantification software (PerkinElmer, Inc). The percentage of proliferating cells was defined as the number of BrdU-labeled cells divided by total DAPI-positive cells.
For proliferation assay in vitro, 1 μM MK2206 (Selleckchem, S1078) (AKT phosphorylation inhibitor), or 2 μM Nutlin-3 (Nt3, Selleckchem, 51061) (Mdm2 inhibitor), or 1 μM RG7112 (Selleckchem, S7030) (Mdm2 inhibitor) or YH239-EE (Selleckchem 57489) (4 μM) (Mdm2 inhibitor) was added to proliferating NPCs at 6 hours post-plating. Cells were then pulse labeled 18 hours later with 5 μM 5-bromo-2′-deoxyuridine (BrdU, Sigma-Aldrich, B5002) and incubated for 6 hours in the presence of inhibitor, followed by fixation, staining, and quantification.

[5] = Fmr1 KO NPCs, 1 μM MK2206, 2 μM Nutlin-3, 1 μM RG7112
[6] = wildtype NPCs, 1 μM MK2206, 2 μM Nutlin-3

COc1ccc(C2=N[C@@H](c3ccc(Cl)cc3)[C@@H](c3ccc(Cl)cc3)N2C(=O)N2CCNC(=O)C2)c(OC(C)C)c1 [Nutlin-3]
cognitive deficits in the NOR test, long-term effect (Fmr1 KO mice; Fmr1 KO mice treated at 8 weeks old, tested at 24 weeks old): long-term effects to fully rescue cognitive deficits
cognitive deficits in the NOR test (Fmr1 KO mice; Fmr1 KO mice treated at 20 weeks old (middle aged), 24-weeks-old at test): fully rescued cognitive deficits
performance on the novel object recognition test (discrimination index) (Fmr1 KO mice; Fmr1 KO mice, treated as young adults, tested 4 weeks later): rescued performance
performance on the novel object recognition test (discrimination index) (Fmr1 KO mice; wildtype mice, tested 4 weeks after treatment): no significant effect on wildtype mice
P53 expression ([1]; Fmr1 KO NPCs): increased P53
p-MDM2 (Ser166) ([1]; Fmr1 KO NPCs): did not affect p-MDM2 levels
P53 expression ([1]; wildtype NPCs): no significant effect on wildtype cells
p-MDM2 (Ser166) ([1]; wildtype NPCs): did not affect p-MDM2 levels
astroglial differentiation (S100β+ among BrdU+ cells) ([2]; Fmr1 KO mice): rescued both neuronal and astroglial differentiation
neuronal differentiation (NeuN+ among BrdU+ cells) ([2]; Fmr1 KO mice): rescued both neuronal and astroglial differentiation
astroglial differentiation (S100β+ among BrdU+ cells) ([2]; wildtype mice): without any significant effect on wildtype mice
neuronal differentiation (NeuN+ among BrdU+ cells) ([2]; wildtype mice): without any significant effect on wildtype mice
astroglial differentiation (GFAP+) [3, 5]: specifically rescued astroglial differentiation phenotypes
neuronal differentiation (Tuj1+) [3, 5]: rescued neuronal differentiation phenotypes
astroglial differentiation (GFAP+) [3, 6]: without a significant effect on wildtype NPCs
neuronal differentiation (Tuj1+) [3, 6]: without a significant effect on wildtype NPCs
cell proliferation (BrdU+ cells) ([4]; Fmr1 KO NPCs, 1 μM MK2206, 2 μM Nutlin-3, 1 μM RG7112, 4 μM YH239-EE): reduced the proliferation
cell proliferation (BrdU+ cells) [4, 6]: without a significant effect on wildtype NPCs
